Measured values: patent US6825340B2, “Methods and reagents for inactivating ribonucleases” (Ambion, Inc., priority 1998, dated 2004)

Assays:
[1] = tested on: RNase mixture (RNase A, RNase 1, RNase T1); assay: Non-isotopic RNase inactivation assay (mouse total RNA, agarose gel); type: biochemical, human, E. coli and a fungus; design: key to RNase Inactivation Water / RNase Inactivation Buffer A / RNase Inactivation Buffer B / RNase Inactivation Buffer C: (+) indicates that the RNase mixture was inactivated; (−) indicates that the RNase mixture was not activated as determined by the non-isotopic assay; settings: for RNase Inactivation Buffer B: 50 mM Tris-HCl (pH 7.0); for RNase Inactivation Buffer C: 30 mM NaCl, 3 mM sodium citrate (pH 7.5)
From the text: The inventors routinely perform assays on RNA designed to assess RNase activity in a sample. Two different assays are typically used for the detection of ribonuclease activity, non-isotopic and isotopic. […] In both assays, the inactivation process is typically performed on a mixture of three different ribonucleases: RNase A, RNase 1, and RNase T1. Each ribonuclease is purified from a different species: […], E. coli and a fungus, respectively. The three RNases are very different from each other in their origin, substrate specificity and protein sequence. In this way, the inactivation process can test three completely different but well characterized ribonucleases. The standard stock RNase mixture employed in the following examples is prepared by combining 1 μl RNase 1 (100 U/μl; Ambion), 1 μl RNase cocktail (RNase A, 0.5 U/μl; RNase T1, 20 U/μl, Ambion) and 98 μl water. The non-isotopic assay uses total RNA isolated from mouse as the substrate for the RNase mixture. […] A quantity of 4 μg of total RNA isolated from mouse liver or brain was dissolved in an aqueous solution, usually water or 1 mM sodium citrate (pH 6.6). The treated ribonuclease sample was added to the total RNA and then incubated at 37° C. for 1 or 16 hours, depending on the sensitivity desired for the assay. After incubation, the RNA was fractionated in a formaldehyde 1% agarose gel. The RNA was detected by staining with ethidium bromide and then illuminating the gel with ultraviolet light. The RNA fluoresces in the gel. Untreated total RNA was also fractionated as a control with the test samples for comparative purposes. […] Intact total RNA has two major bands produced by the 28S and 18S ribosomal RNA. […] The RNase cocktail was made to various concentrations in different buffers in different DTT concentrations and incubated at 37° C. or 60° C. for 20 minutes. Total mouse RNA was added to the treated RNase mixture and incubated at 37° C. for one hour, fractionated in a formaldehyde denaturing 1% agarose gel and the RNA visualized by ethidium bromide staining and UV fluorescence.

[2] = tested on: unknown RNase in alkaline phosphatase storage solution; assay: Isotopic assay of RNase activity in alkaline phosphatase storage solution; type: biochemical; settings: 60° C. for 20 minutes
Experimental: The isotopic RNase assay uses a radioactive RNA synthesized by in vitro transcription as the RNA substrate. The RNA used in the following examples was 1.9 or 4.0 kb in length. The radioactive RNA was synthesized using a T7 MEGAscript™ transcription kit (Ambion, Inc.). The in vitro transcription reaction mixture contained 1.0 μg of linearized DNA template, 2 μl of 10× transcription buffer, 1 μl of UTP[α-^32P] (800 Ci/mmol), 2 μl of each 75 mM ribonucleotide and 2 μl of the T7 RNA polymerase mix, final volume of 20 μl. The reaction was incubated at 37° C. for 3 hours. The transcript was precipitated with 7.5 M LiCl and resuspended in 0.1 ml of 1 mM sodium citrate (pH 6.6) or RNase free water.
2 μl of the RNA probe was incubated with the test sample in a final volume of 10 μl for about 16 hours at 37° C. After incubation, the RNA was fractionated in a denaturing 6 M urea 5% acrylamide gel and then the gel was exposed to x-ray film. Untreated RNA was also fractionated as a control with the test samples for comparative purposes. […] RNase activity was indicated by the intensity of the RNA decreasing and by the appearance of smearing below the intact RNA. […]
A commercial solution of unknown composition to the inventors designed to stabilize the storage of alkaline phosphatase was detected to have RNase activity using the isotopic assay. […]

[3] = RNase Mix 64 ng/ml, DTT 5 mM, 60° C. for 20 minutes
[4] = RNase Mix 64 ng/ml, DTT 10 mM, 37° C. for 20 minutes
[5] = RNase Mix 64 ng/ml, DTT 10 mM, 60° C. for 20 minutes
[6] = RNase Mix 95 ng/ml, DTT 5 mM, 60° C. for 20 minutes
[7] = RNase Mix 95 ng/ml, DTT 10 mM, 37° C. for 20 minutes
[8] = RNase Mix 95 ng/ml, DTT 10 mM, 60° C. for 20 minutes
[9] = RNase Mix 191 ng/ml, DTT 5 mM, 60° C. for 20 minutes
[10] = RNase Mix 191 ng/ml, DTT 10 mM, 37° C. for 20 minutes
[11] = RNase Mix 191 ng/ml, DTT 10 mM, 60° C. for 20 minutes
[12] = RNase Mix 191 ng/ml, DTT 20 mM, 60° C. for 20 minutes
[13] = RNase Mix 954 ng/ml, DTT 5 mM, 60° C. for 20 minutes
[14] = RNase Mix 954 ng/ml, DTT 10 mM, 37° C. for 20 minutes
[15] = RNase Mix 954 ng/ml, DTT 10 mM, 60° C. for 20 minutes
[16] = RNase Mix 954 ng/ml, DTT 20 mM, 60° C. for 20 minutes

`O[C@H](CS)[C@H](O)CS` [DTT, dithiothreitol] was tested, and the “concentration of RNase mixture completely inactivated” value ([1]; 20 mM DTT, 1 mM sodium citrate (pH 6.4), 60° C. for 20 minutes, non-isotopic assay, 1 hour incubation) was “up to 200 ng/ml”, the “inactivation of sequentially added RNases” value ([1]; 20 mM DTT, 1 mM sodium citrate (pH 6.4), RNases 200 ng/ml per addition, heating at 60° C. for 20 minutes after each addition) was “completely inactivated” and the “concentration of RNase mixture completely inactivated in the presence of RNA” value ([1]; 20 mM DTT, mouse liver total RNA 4 μg/10 μl, 1 mM sodium citrate (pH 6.4), 60° C. for 20 minutes) was “up to 3.125 ng/ml”. For the same compound, the “effect of sequentially added RNases without reheating” value ([1]; 20 mM DTT, same buffer, not subjected to the 60° C. incubation) was “complete RNA degradation”, the “60° C. incubation time required for inactivation” value ([1]; RNase 200 ng/ml, 20 mM DTT, 60° C.) was “at least 4 minutes” and the “RNase Inactivation Buffer A” value ([1]; RNase Mix 64 ng/ml, DTT 5 mM, 60° C. for 20 minutes, 1 mM sodium citrate (pH 6.4)) was “+”. For the same compound, the “RNase Inactivation Buffer B” value [1, 3] was “+”, the “RNase Inactivation Buffer C” value [1, 3] was “+” and the “RNase Inactivation Water” value [1, 3] was “+”. The “RNase Inactivation Buffer A” value ([1]; RNase Mix 64 ng/ml, DTT 10 mM, 37° C. for 20 minutes, 1 mM sodium citrate (pH 6.4)) was “+”, the “RNase Inactivation Buffer B” value [1, 4] was “+” and the “RNase Inactivation Buffer C” value [1, 4] was “+”. The “RNase Inactivation Water” value [1, 4] was “+”, the “RNase Inactivation Buffer A” value ([1]; RNase Mix 64 ng/ml, DTT 10 mM, 60° C. for 20 minutes, 1 mM sodium citrate (pH 6.4)) was “+” and the “RNase Inactivation Buffer B” value [1, 5] was “+”. For the same compound, the “RNase Inactivation Buffer C” value [1, 5] was “+”, the “RNase Inactivation Water” value [1, 5] was “+” and the “RNase Inactivation Buffer A” value ([1]; RNase Mix 95 ng/ml, DTT 5 mM, 60° C. for 20 minutes, 1 mM sodium citrate (pH 6.4)) was “−”. For the same compound, the “RNase Inactivation Buffer B” value [1, 6] was “−”, the “RNase Inactivation Buffer C” value [1, 6] was “−” and the “RNase Inactivation Water” value [1, 6] was “−”. The “RNase Inactivation Buffer A” value ([1]; RNase Mix 95 ng/ml, DTT 10 mM, 37° C. for 20 minutes, 1 mM sodium citrate (pH 6.4)) was “−”, the “RNase Inactivation Buffer B” value [1, 7] was “−” and the “RNase Inactivation Buffer C” value [1, 7] was “−”. The “RNase Inactivation Water” value [1, 7] was “−”, the “RNase Inactivation Buffer A” value ([1]; RNase Mix 95 ng/ml, DTT 10 mM, 60° C. for 20 minutes, 1 mM sodium citrate (pH 6.4)) was “+” and the “RNase Inactivation Buffer B” value [1, 8] was “+”. The “RNase Inactivation Buffer C” value [1, 8] was “+”, the “RNase Inactivation Water” value [1, 8] was “+” and the “RNase Inactivation Buffer A” value ([1]; RNase Mix 191 ng/ml, DTT 5 mM, 60° C. for 20 minutes, 1 mM sodium citrate (pH 6.4)) was “−”. The “RNase Inactivation Buffer B” value [1, 9] was “−”, the “RNase Inactivation Buffer C” value [1, 9] was “−” and the “RNase Inactivation Water” value [1, 9] was “−”. The “RNase Inactivation Buffer A” value ([1]; RNase Mix 191 ng/ml, DTT 10 mM, 37° C. for 20 minutes, 1 mM sodium citrate (pH 6.4)) was “−”, the “RNase Inactivation Buffer B” value [1, 10] was “−” and the “RNase Inactivation Buffer C” value [1, 10] was “−”. For the same compound, the “RNase Inactivation Water” value [1, 10] was “−”, the “RNase Inactivation Buffer A” value ([1]; RNase Mix 191 ng/ml, DTT 10 mM, 60° C. for 20 minutes, 1 mM sodium citrate (pH 6.4)) was “+” and the “RNase Inactivation Buffer B” value [1, 11] was “+”. The “RNase Inactivation Buffer C” value [1, 11] was “+”, the “RNase Inactivation Water” value [1, 11] was “+” and the “RNase Inactivation Buffer A” value ([1]; RNase Mix 191 ng/ml, DTT 20 mM, 60° C. for 20 minutes, 1 mM sodium citrate (pH 6.4)) was “+”. For the same compound, the “RNase Inactivation Buffer B” value [1, 12] was “+”, the “RNase Inactivation Buffer C” value [1, 12] was “+” and the “RNase Inactivation Water” value [1, 12] was “+”. The “RNase Inactivation Buffer A” value ([1]; RNase Mix 954 ng/ml, DTT 5 mM, 60° C. for 20 minutes, 1 mM sodium citrate (pH 6.4)) was “−”, the “RNase Inactivation Buffer B” value [1, 13] was “−” and the “RNase Inactivation Buffer C” value [1, 13] was “−”. The “RNase Inactivation Water” value [1, 13] was “−”, the “RNase Inactivation Buffer A” value ([1]; RNase Mix 954 ng/ml, DTT 10 mM, 37° C. for 20 minutes, 1 mM sodium citrate (pH 6.4)) was “−” and the “RNase Inactivation Buffer B” value [1, 14] was “−”. The “RNase Inactivation Buffer C” value [1, 14] was “−”, the “RNase Inactivation Water” value [1, 14] was “−” and the “RNase Inactivation Buffer A” value ([1]; RNase Mix 954 ng/ml, DTT 10 mM, 60° C. for 20 minutes, 1 mM sodium citrate (pH 6.4)) was “−”. For the same compound, the “RNase Inactivation Buffer B” value [1, 15] was “−”, the “RNase Inactivation Buffer C” value [1, 15] was “−” and the “RNase Inactivation Water” value [1, 15] was “−”. For the same compound, the “RNase Inactivation Buffer A” value ([1]; RNase Mix 954 ng/ml, DTT 20 mM, 60° C. for 20 minutes, 1 mM sodium citrate (pH 6.4)) was “+”, the “RNase Inactivation Buffer B” value [1, 16] was “+” and the “RNase Inactivation Buffer C” value [1, 16] was “+”. For the same compound, the “RNase Inactivation Water” value [1, 16] was “+”, the RNase mixture inactivation ([1]; RNase mixture 64 ng/ml, 10 mM DTT, 37° C. for 20 minutes) was “inactivated” and the RNase activity inactivated ([1]; RNase mixture 200 ng/ml, 20 mM DTT, 60° C. for 1 minute) was “approximately 50%”. The RNase activity inactivated ([1]; RNase mixture 200 ng/ml, 20 mM DTT, 60° C. for 2 minutes) was about 80%, the RNase activity inactivated ([1]; RNase mixture 200 ng/ml, 20 mM DTT, 60° C. for 4 minutes) was about 100% and the “RNase inactivation in different buffers and solutions” value ([1]; RNase mixture 200 ng/ml, 20 mM DTT, 60° C. for 20 minutes, 17 solutions, non-isotopic) was “inactivated RNase activity in all of buffers and solutions tested”. For the same compound, the RNase mixture inactivation ([1]; RNase mixture 200 ng/ml, 20 mM DTT, 60° C. for less than 30 seconds) was “did not inactivate”, the RNase mixture inactivation ([1]; RNase mixture 954 ng/ml, 20 mM DTT, 60° C. for 20 minutes) was “inactivated” and the “RNase activity on retest after storage” value ([1]; solutions with inactivated RNases stored at 4° C. for one month) was “none of the solutions had detectable RNase activity”. The “RNase activity of alkaline phosphatase storage solution” value ([2]; 2 mM DTT) was “no detectable RNase activity” and the “RNase activity of alkaline phosphatase storage solution” value ([2]; 5 mM DTT) was “no detectable RNase activity”.
